Among the data in ChEMBL document CHEMBL5725509, “Substituted pyrido[3,4-b]pyrazines as GPR6 modulators” (2017) are IC50 values, retold here.

This assay deals with G-protein coupled receptor 6 (Homo sapiens, UniProt P46095). Put plainly: cAMP assay A.1: This cell based assay measures the ability of compounds to inhibit the constitutive cAMP activity of GPR6 receptor expressed in CHO-K1 cells. CHO cells were stably expressed with GPR6 receptor, whose expression is controlled by a tetracycline inducable element. The cells were cultured in medium containing F12K, 10% FBS, 1% Penn/Strep, 200 ug/mL Hygromycin. GPR6 receptor expression was induced for 20 hrs with 1 μg/ml doxycycline (sigma D9891) in growth media. After addition of doxycycline cells were plated at a density of 250-500 cells per well in half-volume black clear bottom plates (Costar) and place in an incubator (37°, 5% C(O)2) for 20 hours prior to cAMP assays. Culture media was removed from cells and they were washed with 50 μL of Ringer's Buffer (MgCl2 0.047 mg/mL, NaH2PO4 0.18 mg/mL, Na2HPO4 0.1 mg/mL, KCl 0.34 mg/mL, NaHC(O)3 1.26 mg/mL, D-glucose 1.8 mg/mL, NaCl 7 mg/mL; pH=7.4). Compounds suspended in DMSO were diluted in Ringer's Buffer containing 0.5% fatty acid free BSA and incubated on cells for 45 min at 37° and 5% C(O)2. After incubation cells were incubated for 10 min at room temp with Eu-cAMP tracer solution from a Perkin Elmer Lance HTRF UltracAMP assay kit (TRF0264). Then ULight-anti-cAMP solution from the Lance HTRF kit was added and incubated on a shaker at room temp for 1 hour prior to HTRF detection in a BMG PolarStar Omega. […].
Sequence of G-protein coupled receptor 6 (P46095 whole entry): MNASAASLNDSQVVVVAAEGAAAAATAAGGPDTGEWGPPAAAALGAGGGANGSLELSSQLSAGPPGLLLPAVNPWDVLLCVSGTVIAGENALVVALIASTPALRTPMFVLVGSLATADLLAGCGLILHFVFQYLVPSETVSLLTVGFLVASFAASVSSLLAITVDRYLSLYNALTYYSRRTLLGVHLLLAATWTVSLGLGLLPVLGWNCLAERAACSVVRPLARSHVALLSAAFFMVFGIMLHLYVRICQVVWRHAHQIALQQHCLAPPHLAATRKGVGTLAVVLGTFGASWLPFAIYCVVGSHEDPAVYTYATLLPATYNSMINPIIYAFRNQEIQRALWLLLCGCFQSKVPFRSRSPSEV

pIC50: −log10 of the molar value.

`CN1CCc2nc(N3CCC(Oc4ccc(F)cc4F)CC3)c(NCC(F)F)nc2C1`: the negative logarithm of the IC50 (pIC50) was under 3.00.

Take `CC(=O)N1CCc2nc(N3CCN(C(=O)OC(C)(C)C)CC3)c(NC(C)C)nc2C1`: the negative-log IC50 (pIC50) was under 3.00.

For orientation: pIC50 means −log10 of the IC50, conventionally taken in molar units.
